Data taken from patent US20170112861A1, “DRUG DELIVERY ENHANCER COMPRISING SUBSTANCE FOR ACTIVATING LYSOPHOSPHOLIPID RECEPTORS” (Osaka University, priority 2014, published 2017).

Experiments:
[1] = test system: tumor blood vessels of LLC cell tumors; assay: Structural changes in tumor blood vessels after LPA administration (anti-CD31 immunostaining, AngioTool); assay type: in vivo; settings: LLC tumor-bearing mice, LPA 3 mg/kg i.p.
Procedure: Lewis lung cancer cell line (hereinafter called LLC cells) was used as the mouse cancer cell line. LLC cells (1×10^6 cells in 100 μL PBS per animal) were subcutaneously injected into C57BL/6 NCrSlc mice aged 8 weeks (females, SLC, Inc.).
The LPA used was 18:1 LPA (Avanti Polar Lipids, Inc.). A 10 mM LPA stock solution was prepared using 50% ethanol and the solution was stored at −30° C. Before use, the LPA stock solution was thawed and homogenized with an ultrasonic cleaner (SND Co., Ltd.) for 1 minute. The solution was diluted in PBS before administration so that the concentration of LPA was 3 mg/kg in 100 μL PBS. The prepared solution was used for LPA administration.
Day 9 post-inoculation of LLC cells, mice that developed a tumor with a volume of 60 to 80 mm^3 (volume=length×width×height×0.5) were selected and used for the test. Four groups each of three mice were provided: control group, LPA/6 hr group, LPA/12 hr group and LPA/24 hr group. LPA was intraperitoneally administered to the mice of the LPA groups at a dose of 3 mg/kg in 100 μL PBS. The tumors were harvested before LPA administration (control group), and at 6, 12 and 24 hours after LPA administration. The tumors were immersed in 4% paraformaldehyde (PFA)/PBS and shaken at 4° C. overnight for fixation. The tumors were washed with cold PBS (4° C.). Washing was continued for 6 hours, and PBS was renewed every 30 minutes. The tumors were immersed in 15% sucrose/PBS and shaken at 4° C. for 3 hours. The tumors were then immersed in 30% sucrose/PBS and shaken at 4° C. for 3 hours. The tumors were embedded in O.C.T compound (Tissue-Tek) and frozen at −80° C. for 3 days or longer.
The tumors embedded in O.C.T. compound were sectioned at 40 μm with a cryostat (Leica). The sections were placed on glass slides, and air-dried for 2 hours with a drier. The sections were encircled with a liquid blocker. […] The vessel length was measured in the photographs using the vascular structure analysis software AngioTool.

LLC cell tumors = assay: Delivery of FITC-labeled dextrans (70 kDa, 2000 kDa) to tumor tissues after LPA administration; assay type: in vivo; settings: LLC tumor-bearing mice, LPA 3 mg/kg i.p., dextran i.v. 24 hours later, tumors harvested after 30 minutes
Procedure: LLC cells were subcutaneously inoculated into C57BL/6 NCrSlc mice aged 8 weeks (females, SLC, Inc.) in the same manner as in Example 1. An LPA administration solution was prepared in the same manner as in Example 1. On day 11 post-inoculation of LLC cells, mice with a tumor volume of 100 to 120 mm^3 were selected. The mice were divided into four groups: control and LPA groups with administration of 70 kDa dextran, and control and LPA groups with administration of 2000 kDa dextran (n=3). LPA (3 mg/kg in 100 μL PBS) or PBS (100 μL) was administered intraperitoneally. At 24 hours after LPA or PBS administration, each type of dextran was administered to the tail vein of the mice under anesthesia with pentobarbital. The dextrans used (70 kDa and 2000 kDa) were FITC-labeled dextrans (Sigma). Each type of dextran was prepared as a solution by dissolving and diluting the FITC-labeled dextran in PBS to a concentration of […], and 100 μL of the solution was used for the administration. At 30 minutes after administration of each type of dextran, the tumors were harvested from the mice, and the tumor specimens were prepared in the same manner as in Example 4. The specimens were observed and photographed under a confocal laser microscope (Leica).

Q: lysophosphatidic acid [LPA] was tested. Which “structure of tumor blood vessels (vascular network)” value ([1]; 12 and 24 hours after administration) did it give?
A: the formation of a fine vascular network similar to that in normal tissues was observed

Q: And the “structure of tumor blood vessels (vascular network)” value ([1]; 6 hours after administration)?
A: the connection of the blood vessels was observed

Q: And the “average length of blood vessels (AngioTool)” value ([1]; vs before administration)?
A: the length of blood vessels was increased

Q: What about the “delivery of 70 kDa FITC-labeled dextran to tumor” value (LLC cell tumors) of the same substance?
A: delivery of 70 kDa and 2000 kDa dextrans to tumors in the deep lobe was observed

Q: And the “delivery of 2000 kDa FITC-labeled dextran to tumor” value (LLC cell tumors)?
A: delivery of 70 kDa and 2000 kDa dextrans to tumors in the deep lobe was observed
